Laboratory results taken from a melting point compilation (Tetko et al.; mined from patent text by program, amines drawn as free bases though some values may be those of a salt).
Residues, ends and D or L forms follow the SMILES beside them. *: point of attachment. Cbz = O=C(OCc1ccccc1)*

SMILES	melting point [°C]
COc1ccc(CN2Cc3cncn3C(c3ccc(C#N)cc3)C2=O)cc1 (stereo not given)	155 to 157
NCCNC(=O)Cc1ccsc1	89.7 to 92.1
O=C(Nc1ccc(OC(F)(F)F)cc1)NC1CCN(S(=O)(=O)c2ccccc2)CC1	188 to 189
CCOC(=O)c1c(C(F)(F)F)nc(C(F)F)c(C(=O)OC)c1NCC(F)(F)F	64 to 66
NC(=O)CCC(NC(=O)OCc1ccccc1)C(=O)NCC(=O)NCC(=O)NC(CO)C(=O)NC(CC(N)=O)C(=O)NC(Cc1ccccc1)C(N)=O (stereo not given) (Cbz-QGGSNF-NH2; configuration not given here)	225 to 227
CCOC(=O)CCN(C)Cc1ccc(NC(=O)C2=Cc3cc(-c4ccc(N5CCOCC5)cc4)ccc3S(=O)(=O)CC2)cc1	209 to 211
O=C(Nc1ccccc1)OCC1CSC2=C(O1)c1ccccc1C(=O)C2=O (stereo not given)	250 to 252
COc1c(Cl)ccc(Cl)c1C(=O)NO	150
CCCOc1ccccc1-c1nc2cc3ncn(CC4CCCCC4)c3cc2c(=O)[nH]1	223 to 226
Cc1cc(C(=O)NC(=N)N)no1	192
COc1cccc(Oc2c(NS(=O)(=O)c3ccc(C(C)(C)C)cc3)ncnc2SCCOc2ncccn2)c1	168
O=C(O)c1ccc(CO[N+](=O)[O-])cc1	159 to 161
Cc1cc(OCc2ccccc2)cc(C)c1CC(=O)O	149 to 150
CC(=O)OCC1OC(n2ccc3c(F)cccc32)C(OC(C)=O)C(OC(C)=O)C1OC(C)=O (stereo not given)	132 to 135
CCCCN(c1nc(N2CCOCC2)nc(N(CCCC)C2CC(C)(C)N(OC3CCCCC3)C(C)(C)C2)n1)C1CC(C)(C)N(OC2CCCCC2)C(C)(C)C1	159 to 163
S=C1CN=C(c2ccccc2Cl)c2cc(CCc3ccccc3)sc2N1	175 to 176
CN(N=Cc1ccc(C#N)cc1)C(=O)c1[nH]c2ccccc2c1-c1ccccc1	194 to 196
CCOCCC(=O)OC1(C(=O)CO)CCC2C3CCC4=CC(=O)CCC4(C)C3C(O)CC21C (stereo not given)	149
Cc1cccc(OCCCN2CCC(C(O)(c3ccc(F)cc3)c3ccc(F)cc3)CC2)c1	112 to 114
CCOC(=O)C1NCc2[nH]c3cccc(OCc4ccccc4)c3c2C1COC (stereo not given)	170 to 171
O=C1C(=O)c2ccccc2C2=C1SCC1(CCN(CC3CC3)CC1)O2	161 to 164
CN1CCCC(CC(C#N)(Cn2cncn2)c2ccc(Cl)cc2Cl)C1 (stereo not given)	125 to 126

SMILES	melting point [°C]
C=CCN1Cc2nc3c(cnn3CCC#CC)c(N)c2C1=O	192 to 194
CCCC(=O)Nc1cc(NC(=O)CCC)c2ccc(C)nc2c1OC(=O)CCC	195 to 200
O=C(CN1CCCC1)c1ccc(F)cc1	49 to 50
O=C(CCNC(=O)C(Cc1ccccc1)CP(=O)(O)O)OCc1ccccc1 (stereo not given)	122 to 123
O=C(O)c1cc(Cl)ccc1NC(=O)C(CS)Cc1ccccc1 (stereo not given)	157 to 158
COC(=O)N=P(c1ccccc1)(c1ccccc1)c1ccccc1	138 to 139
CCNC(=O)c1c([Si](C)(C)C)sc2c1CCCC2	107 to 112
CCOc1c(OC)ccc2nc3[nH]cnc(=O)c3cc12	348 to 349
O=C(N1CCN(Cc2ccccc2)CC1)N1CC(Oc2ccc(Br)cc2)C1	133 to 135
CN1CCN(c2ccccc2C(O)C2SCCNC2=O)CC1 (stereo not given)	137 to 139
CCCc1c(OCCCCCOc2cc(OCCCC(=O)O)ccc2CCC(=O)O)ccc2c1OCCC2=O	163 to 164
COCC(C)N(C(=O)N(CCCl)N=O)C1(O)C(O)C(CO)OC(OCC(C)C)C1O (stereo not given)	66 to 68
CCCCCCCCCCCCCCOc1ccc(CN(Cc2ccccn2)S(C)(=O)=O)cc1	62 to 63
CCOC(=O)/C=C(C)/C(F)=C/C=C(C)/C=C/c1c(Cl)cc(OC)c(Cl)c1Cl	140 to 142
CSc1cccc(C(=C2CN(C(c3ccccc3)c3ccccc3)C2)S(C)(=O)=O)c1	146
O=C1CCCc2onc(-c3ccccc3[N+](=O)[O-])c21	125 to 127
CC(=O)C(CCCCCCc1ccc(O)cc1)C(C)=O	68 to 69
CCCCOC(=O)COc1cc(F)c([N+](=O)[O-])cc1[N+](=O)[O-]	113 to 115
COc1ccc(C(=O)Nc2c(Cl)cncc2Cl)c2c1OCC2CC(=O)NCc1ccccc1 (stereo not given)	284 to 286
CC(C)(C)OC(=O)c1ncn2c1[C@@H]1CCN1C(=O)c1c(Cl)cccc1-2	235 to 236
CCC(CC)Nc1cc(C(=O)O)ccc1N1CCCC1=O	178 to 180

Now from value to compound:

melting point [°C]	SMILES
202 to 205	O=C(O)CC(NC(=O)c1ccccc1)c1ccccc1F (stereo not given)
153	Cc1ccc2c(c1)c(=O)oc(=O)n2Cc1ccc(F)cc1
169 to 171	CNC(=O)Nc1ccc(O)cc1
134 to 136	O=[N+]([O-])c1ccc2c(ccn2Cc2ccncc2)c1
105 to 107	O=c1ccn(-c2cccc3c2OC(F)(F)O3)nc1-c1ccnn1-c1ccccc1
167 to 168	Nc1c2ccccc2nc2c(=O)[nH][nH]c(=O)c12
170	N#Cc1ccccc1-c1ccc(CNc2ccnc3ccnn23)cc1
86 to 88.5	COC(=O)c1cc(Cl)ccc1-n1cnnc1C
152 to 153	Oc1nn(-c2ccccc2)cc1CCc1cscn1
132 to 136	CCOC(=O)Cn1cccc1-c1nc(-c2ccc(OC)cc2)c(-c2ccc(OC)cc2)s1
164 to 165	Cc1nc2c(OC3CCc4ccccc43)nccc2n1C (stereo not given)
224	CS(=O)(=O)Oc1cnc2ccccc2c1O
244	O=c1[nH]ncn1C(c1cccc(Cl)c1)c1ccnc2ccccc12 (stereo not given)
166 to 168	COc1ccc2nc(C3(OC)C=CC(=NS(=O)(=O)c4ccc(C)cc4)C=C3)sc2c1 (stereo not given)
> 340	O=c1[nH]c2sc3ccc(Cl)cc3c2[nH]c1=O
170	COc1ccc(C(=O)NCCc2ccc(-c3ccc(O)cc3)cc2)cc1OC
99 to 100	COc1ccc(C2=NN(CCc3ccccc3)C(=O)[C@H]3CCCC[C@@H]23)cc1OC (relative stereo)
> 250	Nc1nc2ccccc2c2c1nc(CO)n2CC1(O)CCOCC1
126 to 128	Nc1ccc(-c2cnns2)cc1
143 to 145	COc1ccc(-c2oc3cc(OC)cc(O)c3c(=O)c2OC)cc1
98.5 to 100	Cc1ccc(S(=O)(=O)N(c2ccc(Cl)cc2[N+](=O)[O-])C2CC2)cc1
210 to 214	COc1cc2c(cc1OC)C(c1ccc([N+](=O)[O-])cc1)=NN(c1ccccn1)[C@H](C)C2
121 to 122	CCN(CC)C(=O)c1ccc2ccccc2c1-c1ccccc1
217 to 218	CCc1cc2c(-c3ccccc3Cl)c(NC(=O)Nc3ccc(F)cc3F)cnc2s1
134 to 135	CCOC(=O)NNC=Nc1nc(-c2ccc3c(c2)CCCC3)cs1
79 to 81	CCC(=O)Nc1ccc(Oc2cccc(OC)c2)cc1
216 to 219	Cc1c(O)ccc2c(-c3ccccc3F)noc12
